The source of these data is US6087118A, “Method for diagnosing alzheimer's disease” (priority 1999, dated 2000).

“Also recorded” adds a separate entry of the source.

Test [1] concerns K+ channels in human platelets. In words: Ionomycin-stimulated 86Rb+ efflux from perfused platelets. In kind it is cell-based. The note with it: for Inhibition in controls (%) of ionomycin-stimulated 86Rb+ efflux: platelets of age- and sex-matched controls; for Inhibition in controls (%) of ionomycin-stimulated 86Rb+ efflux / Inhibition in Alzheimer's disease (%) of ionomycin-stimulated 86Rb+ efflux / Effect on ionomycin-stimulated 86Rb+ efflux, pooled data (FIG. 3a) / Effect on ionomycin-stimulated 86Rb+ efflux, pooled data (FIG. 3b): ionomycin 1 μM, apamin 100 nM, charybdotoxin 300 nM; for Inhibition in controls (%) of ionomycin-stimulated 86Rb+ efflux / Inhibition in Alzheimer's disease (%) of ionomycin-stimulated 86Rb+ efflux: median (interquartile range); for Inhibition in Alzheimer's disease (%) of ionomycin-stimulated 86Rb+ efflux: platelets of patients with AD; for Effect on ionomycin-stimulated 86Rb+ efflux, pooled data (FIG. 3a) / Inhibition of ionomycin-stimulated 86Rb+ efflux in 9 of 11 control subjects / Inhibition of ionomycin-stimulated 86Rb+ efflux in two control subjects: control subjects; for Effect on ionomycin-stimulated 86Rb+ efflux, pooled data (FIG. 3a) / Effect on ionomycin-stimulated 86Rb+ efflux, pooled data (FIG. 3b): n=11; for Effect on ionomycin-stimulated 86Rb+ efflux, pooled data (FIG. 3a): P<0.0001; for Inhibition of ionomycin-stimulated 86Rb+ efflux in 9 of 11 control subjects: the 9 of 11 that responded; for Inhibition of ionomycin-stimulated 86Rb+ efflux in two control subjects: the other 2 of 11 (minimal effects); for Inhibition of ionomycin-stimulated 86Rb+ efflux in 8 of 11 patients with AD: 8 of 11 (minimal effects); for Effect on ionomycin-stimulated 86Rb+ efflux, pooled data (FIG. 3b): patients with Alzheimer's disease, P=0.883. Here is the method: (§1) Platelet perfusion^17. Blood was drawn by venepuncture and anticoagulated with acid-citratedextrose (ACD). Platelets were prepared by centrifugation within an hour of venesection and incubated with ^86 Rb^+ for 2 h. The platelet suspension (2.5×10^7 platelets per ml) was then injected into perfusion chambers, where the cells settled and became immobilized on inert filters (Millipore). The platelets were then continuously perfused with Krebs solution, to allow them to stabilize for 20 min before the start of each experiment. The perfusion buffer was then changed for 5 min to Krebs solution containing thrombin (0.3 IU/ml) or ionomycin (1 μM), after which the perfusion was switched to the original solution and continued for another 20 min. From 0 to 10 min after the addition of thrombin or ionomycin the perfusate was collected at 1-min intervals and thereafter at 2-min intervals. The solutions used for perfusion were bubbled with 95% O2 and 5% CO2 throughout the experiment (pH 7.4). At the end of the experiment the polycarbonate filters were retrieved and placed in scintillation vials, to which 3.5 ml of Aquasafe 500 scintillation fluid was added. The radioactivity in the perfusates and filters was determined by liquid scintillation counting in a Beckmann LS 6000 SE counter and the loss of radioactivity from the cells was calculated. The amount of ^86 Rb^+ (pmol) in each fraction of perfusate collected was determined using the specific activity of the isotope. The radioactivity was measured in each fraction and the results were plotted as the cumulative efflux of ^86 Rb^+ against time.
(§2) Buffers and drucas. ACD contained citric acid (15 g), trisodium citrate (25 g), and dextrose (20 g) in 1 l of distilled water. Krebs buffer contained (mmol/l): NaCl (119); KCl (4.6); CaCl2 (1.5); NaH2 PO4 (1.2); MgCl2 (1.2); NaHCO3 (15); and glucose (11). Apamin, charybdotoxin, α-dendrotoxin, iberiotoxin, ionomycin, and human thrombin were purchased from Sigma Chemical Company, Poole, Dorset. ^86 RbCl was purchased from Amersham International plc (Amersham, Bucks).
(§3) Thrombin and ionomycin. Solutions of thrombin were prepared freshly in distilled water for each experiment and further diluted to a concentration of 0.3 IU/ml in Krebs solution. Stock solutions of ionomycin (10 mM in dimethylsulphoxide) were prepared and stored in aliquots at 4° C. On the day of the experiment ionomycin was further diluted in Krebs solution to a concentration of 1 μM.
(§4) Apamin, charybdotoxin, iberiotoxin, and α-dendrotoxin. Apamin, charybdotoxin, iberiotoxin, and α-dendrotoxin were […]. Apamin, (100 nM), charybdotoxin (300 nM), iberiotoxin (300 nM), and α-dendrotoxin (200 nM) were reconstituted in distilled water and stored in aliquots at -20° C. On the day of the experiment the toxins were further diluted in Krebs solution. Apamin was pre-incubated with the platelets (added at time -20 min) and charybdotoxin, iberiotoxin, and α-dendrotoxin were added with thrombin (at 0 min) for a period of 5 min.
(§5) Data Dresentation and analysis. The results in FIGS. 1-3 are shown as cumulative effluxes of ^86 Rb^+ from 0 to 14 min. The data are shown as means±SEMs (n=number of experiments with platelets obtained from different volunteers). The efflux data were analyzed using analysis of variance with repeated measures.
(§6) K^+ channel fluxes. Platelets were prepared and their K^+ channel fluxes studied as described by DeSilva, H. A. et al^17, by loading fresh platelets with ^86 Rb^+ (used as a radioactive analogue of K^+)^18,19 and stimulating ^86 Rb^+ efflux with thrombin and ionomycin.

Test [2] has as its system K+ channels in human platelets. In words: Thrombin-stimulated 86Rb+ efflux from perfused platelets. In kind it is cell-based. Particulars: for Effect on thrombin-stimulated 86Rb+ efflux, pooled data (FIGS. 1a, 2a) / Inhibition of thrombin-stimulated 86Rb+ efflux in 8 of 11 control subjects / Inhibition of thrombin-stimulated 86Rb+ efflux in the other three control subjects: control subjects; for Effect on thrombin-stimulated 86Rb+ efflux, pooled data (FIGS. 1a, 2a): n=11, P<0.0001; for Effect on thrombin-stimulated 86Rb+ efflux, pooled data (FIGS. 1a, 2a) / Effect on thrombin-stimulated 86Rb+ efflux, pooled data (FIGS. 1b, 2b) / Inhibition in controls (%) of thrombin-stimulated 86Rb+ efflux / Inhibition in Alzheimer's disease (%) of thrombin-stimulated 86Rb+ efflux: thrombin 0.3 IU/ml, apamin 100 nM, charybdotoxin 300 nM, α-dendrotoxin 200 nM; for Inhibition of thrombin-stimulated 86Rb+ efflux in 8 of 11 control subjects: the 8 of 11 that responded; for Inhibition of thrombin-stimulated 86Rb+ efflux in the other three control subjects: the other 3 of 11 (minimal effects); for Inhibition of thrombin-stimulated 86Rb+ efflux in 9 of 12 patients with AD: 9 of 12 (minimal effects); for Inhibition of thrombin-stimulated 86Rb+ efflux in the other three patients with AD: the other 3 of 12; for Effect on thrombin-stimulated 86Rb+ efflux, pooled data (FIGS. 1b, 2b): patients with Alzheimer's disease, n=12; for Inhibition in controls (%) of thrombin-stimulated 86Rb+ efflux: platelets of age- and sex-matched controls; for Inhibition in controls (%) of thrombin-stimulated 86Rb+ efflux / Inhibition in Alzheimer's disease (%) of thrombin-stimulated 86Rb+ efflux: median (interquartile range); for Inhibition in Alzheimer's disease (%) of thrombin-stimulated 86Rb+ efflux: platelets of patients with AD. Here is the method: as §1, §2, §3, §4, §5, §6

Another test has as its system sodium/potassium pump. In words: Uptake of 86Rb+ by platelets. In kind it is cell-based, human. Particulars: unpublished observations of de Silva & Aronson.

Take “iberiotoxin (QFTDVDCSVSKECWSVCKDLFGVDRGKCMGKKCRCYQ; UniProt P24663 1-37, looked up) [purchased from Sigma]”: the “Effect on ionomycin-stimulated effluxes in platelets from any individual” value in test [1] (patients with AD and controls, iberiotoxin 300 nM) was “no effect”. Also, in test [1] (iberiotoxin 300 nM), the “Inhibition in controls (%) of ionomycin-stimulated 86Rb+ efflux” value was 2 (0-3) % and the “Inhibition in Alzheimer's disease (%) of ionomycin-stimulated 86Rb+ efflux” value was 0 (0-4) %.
Regarding charybdotoxin, in test [1], the “Effect on ionomycin-stimulated 86Rb+ efflux, pooled data (FIG. 3a)” value (“Effect … (FIG. 3a)” below) is reported as “inhibited; also recorded: significant reductions”; the “Inhibition of ionomycin-stimulated 86Rb+ efflux in 9 of 11 control subjects” value is given as at least 22%; the “Inhibition of ionomycin-stimulated 86Rb+ efflux in two control subjects” value is recorded as “less than 12%”; the “Inhibition of ionomycin-stimulated 86Rb+ efflux in 8 of 11 patients with AD” value is given as “less than 12%”. Also, the “Effect on ionomycin-stimulated 86Rb+ efflux, pooled data (FIG. 3b)” value (from here on “Effect … (FIG. 3b)”) in test [1] is “no significant effect; also recorded: minimal effects”. In test [1] (iberiotoxin 300 nM), the “Inhibition in controls (%) of ionomycin-stimulated 86Rb+ efflux” value is on record as 28 (20-34) % and the “Inhibition in Alzheimer's disease (%) of ionomycin-stimulated 86Rb+ efflux” value is 4 (1-26) %. In test [2], the “Effect on thrombin-stimulated 86Rb+ efflux, pooled data (FIGS. 1a, 2a)” value (shortened to “Effect … (FIGS. 1a, 2a)”) is reported as “inhibited; also recorded: significant reductions”; the “Inhibition of thrombin-stimulated 86Rb+ efflux in 8 of 11 control subjects” value is recorded as at least 16%; the “Inhibition of thrombin-stimulated 86Rb+ efflux in the other three control subjects” value is “less than 10%”; the “Inhibition of thrombin-stimulated 86Rb+ efflux in 9 of 12 patients with AD” value is “less than 10%”. Also, in test [2], the “Inhibition of thrombin-stimulated 86Rb+ efflux in the other three patients with AD” value is “at least 16%”; the “Effect on thrombin-stimulated 86Rb+ efflux, pooled data (FIGS. 1b, 2b)” value (shortened to “Effect … (FIGS. 1b, 2b)”) is reported as “no significant effect; also recorded: neither apamin nor charybdotoxin caused significant reductions”; the “Inhibition in controls (%) of thrombin-stimulated 86Rb+ efflux” value is 22 (18-29) %; the “Inhibition in Alzheimer's disease (%) of thrombin-stimulated 86Rb+ efflux” value is recorded as 0 (0-4) %.
Consider `CC(C)C[C@@H]1NC(=O)[C@H](C)NC(=O)[C@H]([C@@H](C)O)NC(=O)[C@H](CCC(=O)O)NC(=O)[C@@H]2CCCN2C(=O)[C@H](C)NC(=O)[C@H](CCCCN)NC(=O)[C@@H]2CSSC[C@@H](C(=O)N[C@@H](CCC(N)=O)C(=O)N[C@@H](CCC(N)=O)C(=O)N[C@@H](Cc3cnc[nH]3)C(N)=O)NC(=O)[C@H](CCCNC(=N)N)NC(=O)[C@H](CCCNC(=N)N)NC(=O)[C@H](C)NC(=O)[C@H](CSSC[C@H](N)C(=O)N[C@@H](CC(N)=O)C(=O)N2)NC1=O` [Apamin], for which, in test [1], the “Effect … (FIG. 3a)” value is “inhibited”; the “Inhibition of ionomycin-stimulated 86Rb+ efflux in 9 of 11 control subjects” value is reported as “at least 18%”; the “Inhibition of ionomycin-stimulated 86Rb+ efflux in two control subjects” value is recorded as “less than 12%”; the “Inhibition of ionomycin-stimulated 86Rb+ efflux in 8 of 11 patients with AD” value is recorded as “less than 12%”. In addition, in test [1], the “Effect … (FIG. 3b)” value was “no significant effect”. In test [1] (listed as apamin), the “Effect … (FIG. 3a)” value is reported as “significant reductions” and the “Effect … (FIG. 3b)” value was “minimal effects”. For the same molecule, in test [1] (iberiotoxin 300 nM), the “Inhibition in controls (%) of ionomycin-stimulated 86Rb+ efflux” value is given as 30 (20-31) % and the “Inhibition in Alzheimer's disease (%) of ionomycin-stimulated 86Rb+ efflux” value was 1 (0-20) %. Besides, in test [2], the “Effect … (FIGS. 1a, 2a)” value was “inhibited”; the “Inhibition of thrombin-stimulated 86Rb+ efflux in 8 of 11 control subjects” value is on record as “at least 18%”; the “Inhibition of thrombin-stimulated 86Rb+ efflux in the other three control subjects” value is recorded as “less than 10%”; the “Inhibition of thrombin-stimulated 86Rb+ efflux in 9 of 12 patients with AD” value is “less than 10%”. In test [2], the “Inhibition of thrombin-stimulated 86Rb+ efflux in the other three patients with AD” value is given as “at least 16%”; the “Effect … (FIGS. 1b, 2b)” value is “no significant effect”; the “Inhibition in controls (%) of thrombin-stimulated 86Rb+ efflux” value is on record as 26 (20-27) %; the “Inhibition in Alzheimer's disease (%) of thrombin-stimulated 86Rb+ efflux” value is given as 0 (0-0) %. Further, in test [2] (listed as apamin), the “Effect … (FIGS. 1a, 2a)” value was “significant reductions” and the “Effect … (FIGS. 1b, 2b)” value is “neither apamin nor charybdotoxin caused significant reductions”.
In the case of `C[C@@H]1O[C@@H](O[C@H]2C[C@@H](O)[C@]3(CO)[C@H]4[C@H](O)C[C@]5(C)[C@@H](C6=CC(=O)OC6)CC[C@]5(O)[C@@H]4CC[C@]3(O)C2)[C@H](O)[C@H](O)[C@H]1O` [ouabain], in the test with sodium/potassium pump, the “Share of 86Rb+ uptake in platelets inhibitable by ouabain” value is listed as “over 90%”.
In the case of α-dendrotoxin, in test [2], the “Effect … (FIGS. 1a, 2a)” value is “inhibited”; the “Effect … (FIGS. 1b, 2b)” value is “inhibited”; the “Inhibition in controls (%) of thrombin-stimulated 86Rb+ efflux” value is recorded as 26 (20-29) %; the “Inhibition in Alzheimer's disease (%) of thrombin-stimulated 86Rb+ efflux” value is 19 (18-27) %.
